Test results published in the supplement of paper PMC11061612.

What was measured:
KELLY (Neuroblastoma) [1] = test: Bliss excess, mean over the matrix (fraction); higher = more synergy
Summary of the method: (§1)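 Bliss excess equals the observed combination effect minus the expected value EA + EB − EA·EB, where EA and EB are the effects of each agent alone. Combination Emax is the second-highest inhibition within the matrix. Inhibition was scaled from CellTiter-Glo 2.0 luminescence, with 0 set by vehicle wells and 1 by blank wells, after 72 hours of two-drug dosing of cells plated in 1536-well plates.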

[2] = test system: Calu-3 (Lung Adenocarcinoma); test: as above
Summary of the method: as §1

[3] = test system: B-CPAP (Thyroid Gland Carcinoma); test: as above
Summary of the method: as §1

[4] = test system: Daoy (Other Solid Carcinomas); test: as above
Summary of the method: as §1

[5] = test system: HuP-T4 (Pancreatic Carcinoma); test: as above
Summary of the method: as §1

NOS-1 (Osteosarcoma) [6] = test: as above
Summary of the method: as §1

[7] = test system: TE-9 (Esophageal Squamous Cell Carcinoma); test: combination Emax (second highest fraction inhibited in the dose matrix, 72 h); higher = more inhibition; extreme values may be limits of the assay
Summary of the method: as §1

KELLY (Neuroblastoma) [8] = test: as above
Summary of the method: as §1

[9] = test system: Calu-3 (Lung Adenocarcinoma); test: as above
Summary of the method: as §1

HOS (Osteosarcoma) = test: as above
Summary of the method: as §1

[10] = test system: ME-1 (Acute Myeloid Leukemia); test: as above
Summary of the method: as §1

[11] = test system: HCC-78 (Lung Adenocarcinoma); test: as above
Summary of the method: as §1

[12] = test system: DoTc2-4510 (Cervical Carcinoma); test: as above
Summary of the method: as §1

[13] = test system: KYSE-520 (Esophageal Squamous Cell Carcinoma); test: as above
Summary of the method: as §1

[14] = test system: SK-ES-1 (Ewing's Sarcoma); test: as above
Summary of the method: as §1

NOS-1 (Osteosarcoma) [15] = test: as above
Summary of the method: as §1

[16] = test system: MDA-MB-361 (Breast Carcinoma); test: as above
Summary of the method: as §1

[17] = test system: LB831-BLC (Bladder Carcinoma); test: as above
Summary of the method: as §1

[18] = test system: HCC1806 (Breast Carcinoma); test: as above
Summary of the method: as §1

[19] = test system: MFE-296 (Endometrial Carcinoma); test: as above
Summary of the method: as §1

| SMILES | Bliss excess (KELLY (Neuroblastoma) [1]) | Bliss excess [2] | Bliss excess [3] | Bliss excess [4] | Bliss excess [5] | Bliss excess (NOS-1 (Osteosarcoma) [6]) | combination Emax [7] | combination Emax (KELLY (Neuroblastoma) [8]) | combination Emax [9] | combination Emax (HOS (Osteosarcoma)) | combination Emax [10] | combination Emax [11] | combination Emax [12] | combination Emax [13] | combination Emax [14] | combination Emax (NOS-1 (Osteosarcoma) [15]) | combination Emax [16] | combination Emax [17] | combination Emax [18] | combination Emax [19] |
| --- | --- | --- | --- | --- | --- | --- | --- | --- | --- | --- | --- | --- | --- | --- | --- | --- | --- | --- | --- | --- |
| C[C@@H](c1ccc2nccn2c1)n1nnc2ncc(-c3cnn(C)c3)nc21 [Savolitinib] + Cc1c2c(nn1C)CSCc1cc(n(C)n1)CSc1cc(c3ccccc3c1)OCCCc1c(C(=O)O)n(C)c3c-2c(Cl)ccc13 [AZD5991] (first compound max 1 µM, 7x7, partner max 1 µM) | -0.0138 | -0.021 | -0.0221 | -0.0141 | -0.0618 | -0.059 | 0.239 | 0.805 | 0.2 | 0.278 | 0.397 | 0.18 | 0.205 | 0.189 | 0.781 | 0.742 | 0.735 | 0.232 | 0.2 | 0.244 |
| Cn1cnc2c(F)c(Nc3ccc(Br)cc3Cl)c(C(=O)NOCCO)cc21 [Selumetinib] + C=CCn1c(=O)c2cnc(Nc3ccc(N4CCN(C)CC4)cc3)nc2n1-c1cccc(C(C)(C)O)n1 [AZD1775] (first compound max 10 µM, partner max 1 µM) | -0.0658 | -0.0405 | -0.0704 | -0.0443 | 0.0161 | 0.0355 | 0.231 | 1 | 0.143 | 0.222 | 0.484 | 0.345 | 0.251 | 0.595 | 0.944 | 0.818 | 0.819 | 0.406 | 0.919 | 0.163 |
| Cn1cnc2c(F)c(Nc3ccc(Br)cc3Cl)c(C(=O)NOCCO)cc21 [Selumetinib] + CC(C)n1c(=O)n(C)c2cnc3cc(F)c(-c4ccc(OCCCN5CCCCC5)nc4)cc3c21 [AZD1390] (first compound max 10 µM, 7x7, partner max 0.3 µM) | -0.0177 | -0.023 | -0.0222 | -0.021 | -0.0086 | 0.0117 | 0.13 | 0.22 | 0.115 | 0.11 | 0.434 | 0.123 | 0.144 | 0.382 | 0.19 | 0.257 | 0.12 | 0.214 | 0.299 | 0.0966 |
| Cn1cnc2c(F)c(Nc3ccc(Br)cc3Cl)c(C(=O)NOCCO)cc21 [Selumetinib] + CCN(CCO)CCCOc1ccc2c(Nc3cc(CC(=O)Nc4cccc(F)c4)[nH]n3)ncnc2c1 [AZD2811] (first compound max 10 µM, 7x7, partner max 1 µM) | -0.0709 | -0.0353 | 0.001 | 0.012 | -0.0161 | -0.0092 | 0.175 | 0.645 | 0.134 | 0.198 | 0.413 | 0.267 | 0.224 | 0.428 | 0.96 | 0.313 | 0.193 | 0.226 | 0.321 | 0.125 |
| Cn1cnc2c(F)c(Nc3ccc(Br)cc3Cl)c(C(=O)NOCCO)cc21 [Selumetinib] + C[C@@H]1COCCN1C2=NC(=NC(=C2)C3(CC3)[S@](=N)(=O)C)C4=C5C=CNC5=NC=C4 [AZD6738] (first compound max 10 µM, 7x7, partner max 10 µM) | -0.015 | -0.0295 | -0.0026 | -0.0087 | 0.0891 | 0.043 | 0.147 | 0.952 | 0.408 | 0.529 | 0.469 | 0.537 | 0.392 | 0.534 | 0.82 | 0.784 | 0.795 | 0.278 | 0.938 | 0.339 |
| CC(=O)Nc1cccc(-n2c(=O)n(C3CC3)c(=O)c3c(Nc4ccc(I)cc4F)n(C)c(=O)c(C)c32)c1 [Trametinib] + Cc1nc(-c2cn3c(n2)-c2ccc(-c4cnn(C(C)(C)C(N)=O)c4)cc2OCC3)n(C(C)C)n1 [Taselisib] (first compound max 1 µM, 7x7, partner max 10 µM) | 0.132 | 0.162 | 0.141 | 0.0146 | 0.241 | 0.191 | 0.824 | 0.47 | 0.972 | 0.43 | 0.381 | 0.712 | 0.841 | 0.846 | 0.696 | 0.928 | 0.976 | 0.77 | 0.798 | 0.43 |
| CC1(C)CCC(CN2CCN(c3ccc(C(=O)NS(=O)(=O)c4ccc(NCC5CCOCC5)c([N+](=O)[O-])c4)c(Oc4cnc5[nH]ccc5c4)c3)CC2)=C(c2ccc(Cl)cc2)C1 [Venetoclax] + C1CN(CCC1(C(=O)N[C@@H](CCO)C2=CC=C(C=C2)Cl)N)C3=NC=NC4=C3C=CN4 [Capivasertib] (first compound max 1 µM, 7x7, partner max 3 µM) | 0.0017 | -0.0116 | -0.0312 | 0.0117 | -0.033 | -0.0157 | 0.192 | 0.998 | 0.174 | 0.281 | 1 | 0.276 | 0.245 | 0.467 | 0.469 | 0.171 | 0.474 | 0.334 | 0.231 | 0.37 |
| CC1(C)CCC(CN2CCN(c3ccc(C(=O)NS(=O)(=O)c4ccc(NCC5CCOCC5)c([N+](=O)[O-])c4)c(Oc4cnc5[nH]ccc5c4)c3)CC2)=C(c2ccc(Cl)cc2)C1 [Venetoclax] + C=CCn1c(=O)c2cnc(Nc3ccc(N4CCN(C)CC4)cc3)nc2n1-c1cccc(C(C)(C)O)n1 [AZD1775] (first compound max 1 µM, partner max 1 µM) | 0.0593 | -0.0074 | -0.0835 | -0.0683 | -0.0443 | 0.0193 | 0.691 | 1 | 0.218 | 0.406 | 1 | 0.701 | 0.633 | 0.595 | 0.987 | 0.675 | 0.865 | 0.677 | 0.912 | 0.3 |
| CC1(C)CCC(CN2CCN(c3ccc(C(=O)NS(=O)(=O)c4ccc(NCC5CCOCC5)c([N+](=O)[O-])c4)c(Oc4cnc5[nH]ccc5c4)c3)CC2)=C(c2ccc(Cl)cc2)C1 [Venetoclax] + CCN(CCO)CCCOc1ccc2c(Nc3cc(CC(=O)Nc4cccc(F)c4)[nH]n3)ncnc2c1 [AZD2811] (first compound max 1 µM, 7x7, partner max 1 µM) | 0.0038 | -0.0057 | 0.0031 | -0.0311 | -0.0061 | -0.0156 | 0.154 | 0.985 | 0.175 | 0.214 | 1 | 0.225 | 0.235 | 0.304 | 1 | 0.255 | 0.334 | 0.188 | 0.212 | 0.124 |
| CC1(C)CCC(CN2CCN(c3ccc(C(=O)NS(=O)(=O)c4ccc(NCC5CCOCC5)c([N+](=O)[O-])c4)c(Oc4cnc5[nH]ccc5c4)c3)CC2)=C(c2ccc(Cl)cc2)C1 [Venetoclax] + CN(C)CCCOc1ccc(-c2ccc3ncc4c(c3c2)n(C2CCOCC2)c(=O)n4C)cn1 [AZD0156] (first compound max 1 µM, 7x7, partner max 1 µM) | 0.0158 | -0.0113 | 0.0113 | -0.0076 | -0.0099 | -0.0358 | 0.141 | 0.976 | 0.121 | 0.152 | 1 | 0.181 | 0.268 | 0.181 | 0.374 | 0.194 | 0.261 | 0.228 | 0.139 | 0.144 |
| CC1(C)CCC(CN2CCN(c3ccc(C(=O)NS(=O)(=O)c4ccc(NCC5CCOCC5)c([N+](=O)[O-])c4)c(Oc4cnc5[nH]ccc5c4)c3)CC2)=C(c2ccc(Cl)cc2)C1 [Venetoclax] + COc1cc(Nc2ncc3c(n2)-c2ccc(Cl)cc2C(c2c(F)cccc2OC)=NC3)ccc1C(=O)O [Alisertib] (first compound max 1 µM, 7x7, partner max 10 µM) | 0.0343 | -0.0228 | -0.0128 | 0.105 | 0.0336 | -0.0231 | 0.369 | 0.998 | 0.171 | 0.248 | 1 | 0.475 | 0.421 | 0.493 | 1 | 0.575 | 0.773 | 0.456 | 0.278 | 0.225 |
| CC1(C)CCC(CN2CCN(c3ccc(C(=O)NS(=O)(=O)c4ccc(NCC5CCOCC5)c([N+](=O)[O-])c4)c(Oc4cnc5[nH]ccc5c4)c3)CC2)=C(c2ccc(Cl)cc2)C1 [Venetoclax] + C[C@@H]1COCCN1C2=NC(=NC(=C2)C3(CC3)[S@](=N)(=O)C)C4=C5C=CNC5=NC=C4 [AZD6738] (first compound max 1 µM, 7x7, partner max 10 µM) | 0.0209 | -0.0023 | -0.0136 | -0.028 | -0.037 | -0.057 | 0.274 | 0.998 | 0.265 | 0.642 | 1 | 0.661 | 0.603 | 0.575 | 0.914 | 0.67 | 0.884 | 0.466 | 0.938 | 0.387 |
